Data taken from PubChem BioAssay (NCI).
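Briefly, cells in 96-well plates were exposed to five compound concentrations for 48 h, and endpoints were estimated by linear interpolation. At the TGI there is no net growth.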

Tests used:
Assay in all cases: NCI anticancer screen, dose series, 48 h
EKVX NSCLC = system: EKVX NSCLC
OVCAR-5 ovarian = system: OVCAR-5 ovarian
HCC-2998 colon = system: HCC-2998 colon
UO-31 renal = system: UO-31 renal
K-562 leukemia = system: K-562 leukemia
LOX IMVI melanoma = system: LOX IMVI melanoma
TK-10 renal = system: TK-10 renal
SK-OV-3 ovarian = system: SK-OV-3 ovarian
SF-539 CNS = system: SF-539 CNS
A498 renal = system: A498 renal

| Compound | TGI (EKVX NSCLC) | TGI (OVCAR-5 ovarian) | TGI (HCC-2998 colon) | TGI (UO-31 renal) | TGI (K-562 leukemia) | TGI (LOX IMVI melanoma) | TGI (TK-10 renal) | TGI (SK-OV-3 ovarian) | TGI (SF-539 CNS) | TGI (A498 renal) |
| --- | --- | --- | --- | --- | --- | --- | --- | --- | --- | --- |
| CC(=O)OCc1ccc2oc(=O)c(C(=O)Oc3cccc(Cl)c3)cc2c1 | > 100 µM | > 100 µM | 39.3 µM | 55.4 µM | 79.8 µM | > 100 µM | 91.6 µM | > 100 µM | > 100 µM | – |
| CO[C@H]1ON=C(c2c(C)cc(C)cc2C)[C@@H]1C1(c2ccccc2)ON=C(c2c(C)cc(C)cc2C)O1 (some centres not stated) | > 100 µM | > 100 µM | > 100 µM | > 100 µM | > 100 µM | > 100 µM | > 100 µM | > 100 µM | > 100 µM | – |
| NC(=O)c1ccc(NS(=O)(=O)c2ccc(N)cc2)nc1 | > 100 µM | > 100 µM | > 100 µM | > 100 µM | > 100 µM | > 100 µM | > 100 µM | > 100 µM | – | > 100 µM |
| CN1C(=O)CN2C(Cl)(Cl)C2(c2ccccc2F)c2cc([N+](=O)[O-])ccc21 (configuration not stated) | > 100 µM | > 100 µM | 86 µM | > 100 µM | > 100 µM | > 100 µM | > 100 µM | – | – | – |
| CN(C)CCCNC(=O)c1cc(NC(=O)c2cc(NS(=O)(=O)c3ccc4c(c3)C(=O)c3ccccc3C4=O)cn2C)cn1C | > 100 µM | > 100 µM | > 100 µM | > 100 µM | > 100 µM | > 100 µM | > 100 µM | > 100 µM | > 100 µM | > 100 µM |
| CCN1C(=S)n2cccc2C1CC(=O)c1ccc(Cl)cc1 (configuration not stated) | > 100 µM | > 100 µM | > 100 µM | > 100 µM | > 100 µM | > 100 µM | > 100 µM | > 100 µM | – | > 100 µM |
| C1CCC(OCc2nnn3c2CCC3)OC1 (configuration not stated) | > 100 µM | > 100 µM | > 100 µM | > 100 µM | > 100 µM | > 100 µM | > 100 µM | > 100 µM | > 100 µM | – |
| O=Nc1c(-c2c(O)[nH]c3ccccc23)[nH]c2ccccc12 | 9.12 µM | > 86.4 µM | 16.3 µM | 13.4 µM | > 100 µM | 41.4 µM | 55.2 µM | 21.2 µM | > 100 µM | 13.9 µM |
| COc1ccc(CC2c3cc(OC)c(OC)c(OC)c3CC[N+]2(C)C)cc1Oc1ccc(CC2c3cc4c(c(OC)c3CC[N+]2(C)C)OCO4)cc1 (configuration not stated) | > 100 µM | > 100 µM | > 100 µM | > 100 µM | > 100 µM | > 100 µM | > 100 µM | > 100 µM | – | > 100 µM |
| Nc1ccc(Oc2ccc(C3(c4ccc(Oc5ccc(N)cc5)cc4)C4CC5C6CC7CC5C3C(C7)C6C4)cc2)cc1 | > 100 µM | > 100 µM | > 77.9 µM | > 100 µM | > 100 µM | > 66.4 µM | > 100 µM | – | > 100 µM | 18.9 µM |
| C[C@H]1C(=O)O[C@@H]1[C@H]1COC(C)(C)O1 | > 100 µM | > 100 µM | > 100 µM | > 100 µM | – | – | > 100 µM | > 100 µM | > 100 µM | > 100 µM |
| Cc1nc2c(O)cc3c4c(=O)n(C)c(=O)n(C)c4n(Cc4ccccc4)c3c2nc1C | 50.2 µM | 43.6 µM | 40.3 µM | 31.4 µM | > 100 µM | 37.4 µM | 38.4 µM | 32.2 µM | 30 µM | 81.7 µM |
| Nc1nc(Cl)cc(NCCCNc2cc(Cl)nc(N)n2)n1 | > 100 µM | > 100 µM | > 100 µM | > 100 µM | > 100 µM | > 100 µM | > 100 µM | > 100 µM | > 100 µM | > 100 µM |
| c1ccc(CSc2ccccc2CN2CCN(Cc3ccccc3SCc3ccccc3)CCN(Cc3ccccc3SCc3ccccc3)CC2)cc1 | 3.39 µM | 6.04 µM | 2.39 µM | 7.66 µM | 7.18 µM | 2.75 µM | 5.72 µM | 6.34 µM | 3.54 µM | 5.81 µM |
| CCCCC(C(=O)N/N=C/c1ccc([N+](=O)[O-])o1)C(=O)N/N=C/c1ccc([N+](=O)[O-])o1 | 26.6 µM | 7.23 µM | – | 4.6 µM | 14.6 µM | 5.92 µM | 7.73 µM | 50.9 µM | 35.5 µM | 41 µM |
